Here are results for one molecule from paper PMC12028159, “L-Rhamnose Dehydrogenase LraA of Aspergillus niger Shows High Substrate Specificity Matching Its Expression Profile” (Journal of Fungi, 2025).

The subject of this test is LraA (L-rhamnose dehydrogenase). The test can be described thus: NADH formation at […] nm, Michaelis-Menten fit. The test is classed as biochemical, Aspergillus niger. The conditions noted are these: NAD+ 1 mM as co-substrate, 100 mM Tris-HCl pH 8.0, 25 °C.

`C[C@@H]1OC(O)[C@H](O)[C@H](O)[C@H]1O` (stereo partly drawn) [L-rhamnose]: the Km was found to be 2400 ± 900 µM.

As a reminder, the Km is the concentration of substrate that gives half-maximal velocity.
